Source: PMC10178864, “Identification, Baculoviral Expression, and Biochemical Characterization of a Novel Cholinesterase of Amblyomma americanum (Acari: Ixodidae)” (International Journal of Molecular Sciences, 2023)
Where two headings read alike, the source gives them in different places.

Key:
[1] = tested on: T1, rAaChE1 (recombinant AaChE1, A. americanum cholinesterase 1); assay: cholinesterase assay, absorbance at […] nm, microplate; type: biochemical, Amblyomma americanum; settings: culture supernatant of baculovirus-infected Sf21 cells
T1 construct: pBlueBac4.5/V5-His in Sf21 cells (reverse primer appears to carry the native stop codon); unpurified culture supernatant

[2] = biological target: T1, rAaChE1 (recombinant AaChE1, A. americanum cholinesterase 1); assay: cholinesterase inhibition assay, absorbance at […] nm; type: biochemical, Amblyomma americanum; design: unit not given here; settings: 15 min preincubation, culture supernatant

Structure (SMILES) | (IC50) ^2 / rAaChE1 (ATCh Substrate) ([2]; covalent) | further results
CC(=O)SCC[N+](C)(C)C [ATCh, acetylthiocholine] | – | Km ([1]; read-out: KM): 6.39 µM
C=CC[N+](C)(C)c1ccc(CCC(=O)CCc2ccc([N+](C)(C)CC=C)cc2)cc1 [BW284c51, 1,5-Bis(4-allyldimethylammoniumphenyl)pentan-3-one dibromide] | – | (IC50) ^2 / rAaChE1 (ATCh Substrate) [2]: 2.96 × 10^−7 (2.50–3.50 × 10^−7)
CCCC(=O)SCC[N+](C)(C)C [BuTCh, butyrylthiocholine] | – | Km ([1]; read-out: apparent KM): 14.2 µM
CCOP(=O)(OCC)Oc1ccc2c(C)c(Cl)c(=O)oc2c1 [Coroxon] | 2.35 × 10^−11 (1.93–2.84 × 10^−11) | –
CNC(=O)Oc1ccc2c(c1)[C@]1(C)CCN(C)[C@@H]1N2C [Eserine] | 2.28 × 10^−10 (2.37–3.26 × 10^−10) | –
CC(C)NP(=O)(NC(C)C)OP(=O)(NC(C)C)NC(C)C [Iso-OMPA] | 3.48 × 10^−05 (2.76–4.43 × 10^−5) | –
CCOC(=O)CC(SP(=O)(OC)OC)C(=O)OCC (stereo not shown) [Malaoxon] | 2.77 × 10^−8 (2.45–3.14 × 10^−8) | –
